In patent US12673975B2, “Cyclic peptide, cell scaffold material, cell separating material, and medium” (FUJIFILM Corporation, priority 2019, dated 2026):
pKd: −log10 of the molar value. Read-outs that look alike come from different tables or passages of the source. Starred links: 1 amine or outer side, 2 acyl side, 3 side chain; linkers in the order of their positions; H or OH if unused. Positions of bridges follow the written chain, without caps; N, C: chain ends. Non-standard residues stand in square brackets, D forms with d. Residues, ends and D or L forms follow the SMILES beside them. Pen = CC(C)(S)[C@H](N)C(=O)O; hCys = N[C@@H](CCS)C(=O)O; Orn = NCCC[C@H](N)C(=O)O; Dab = NCC[C@H](N)C(=O)O; X2 = O=C(C[*:1])[*:2]

Legend:
[1] = biological target: human integrin αvβ5 (Homo sapiens, UniProt P06756+P18084); test: Evaluation of integrin binding property (surface plasmon resonance, Biacore 3000, immobilized cyclic peptide)
Outline: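 Human αvβ5 (30-1,000 nM) flowed for 10 min at 25 °C over immobilized cyclic peptide in 20 mM HEPES, 150 mM NaCl, 5 mM MgCl2, pH 7.4, followed by 30 min running buffer and 0.5 M EDTA regeneration. Dissociation constant from peptide minus unimmobilized channel, scored into standard grades.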

[2] = Evaluation of molecule stability (alkali treatment, residual rate by LC/MS); format: physicochemical; details: for Performance evaluation: Stability (residual rate of cyclic peptide after alkali treatment): 500 μM peptide aqueous solution plus equivalent of 1 M sodium hydroxide, 15° C., 3 hours, LC/MS peak area; for Stability (molecule stability, residual rate of the cyclic peptide rank): alkali treatment, residual rate by LC/MS
Outline: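 Stability read as percent of summed LC/MS peak area remaining versus untreated peptide (C18, 45 °C, 10 mM ammonium formate pH 3, ESI positive/negative). Treatment: 500 μM peptide in water plus an equivalent of 1 M NaOH, 15 °C for 3 hours.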

[3] = SPR, 25° C., HEPES buffer with 5 mM magnesium chloride, integrin 30-1,000 nM, read-out: Performance evaluation: Binding activity (dissociation constant between the cyclic peptide and human integrin αvβ5)
[4] = surface plasmon resonance, immobilized cyclic peptide, human integrin αvβ5, read-out: Binding activity (integrin binding property, dissociation constant rank)

Chain of human integrin αvβ5 (P06756 31-1048): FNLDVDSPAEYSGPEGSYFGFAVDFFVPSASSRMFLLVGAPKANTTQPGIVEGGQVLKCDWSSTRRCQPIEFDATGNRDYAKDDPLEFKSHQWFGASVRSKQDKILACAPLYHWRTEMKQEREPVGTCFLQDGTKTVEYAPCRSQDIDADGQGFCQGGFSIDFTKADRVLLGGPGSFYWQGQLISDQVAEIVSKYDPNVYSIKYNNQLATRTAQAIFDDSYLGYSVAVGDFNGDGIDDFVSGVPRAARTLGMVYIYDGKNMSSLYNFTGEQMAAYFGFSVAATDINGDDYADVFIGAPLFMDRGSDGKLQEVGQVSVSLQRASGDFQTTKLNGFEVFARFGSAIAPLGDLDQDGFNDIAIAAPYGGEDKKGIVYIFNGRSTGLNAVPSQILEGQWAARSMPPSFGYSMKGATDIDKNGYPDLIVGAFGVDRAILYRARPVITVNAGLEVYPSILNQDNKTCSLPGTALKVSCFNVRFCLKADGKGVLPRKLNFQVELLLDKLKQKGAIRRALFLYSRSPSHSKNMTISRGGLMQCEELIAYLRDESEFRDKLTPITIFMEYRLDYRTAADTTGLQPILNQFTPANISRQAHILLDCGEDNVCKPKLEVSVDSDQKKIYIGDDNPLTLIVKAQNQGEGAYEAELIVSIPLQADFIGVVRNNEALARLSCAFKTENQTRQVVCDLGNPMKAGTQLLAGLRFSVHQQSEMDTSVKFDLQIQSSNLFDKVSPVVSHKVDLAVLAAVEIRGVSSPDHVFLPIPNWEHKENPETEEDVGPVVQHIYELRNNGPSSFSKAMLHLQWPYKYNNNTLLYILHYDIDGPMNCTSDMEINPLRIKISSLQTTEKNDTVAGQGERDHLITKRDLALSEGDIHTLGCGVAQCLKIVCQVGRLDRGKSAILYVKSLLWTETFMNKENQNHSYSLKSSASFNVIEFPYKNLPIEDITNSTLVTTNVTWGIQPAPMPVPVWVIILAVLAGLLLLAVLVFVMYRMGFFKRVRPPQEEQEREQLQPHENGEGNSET
Chain of human integrin αvβ5 (P18084 24-799): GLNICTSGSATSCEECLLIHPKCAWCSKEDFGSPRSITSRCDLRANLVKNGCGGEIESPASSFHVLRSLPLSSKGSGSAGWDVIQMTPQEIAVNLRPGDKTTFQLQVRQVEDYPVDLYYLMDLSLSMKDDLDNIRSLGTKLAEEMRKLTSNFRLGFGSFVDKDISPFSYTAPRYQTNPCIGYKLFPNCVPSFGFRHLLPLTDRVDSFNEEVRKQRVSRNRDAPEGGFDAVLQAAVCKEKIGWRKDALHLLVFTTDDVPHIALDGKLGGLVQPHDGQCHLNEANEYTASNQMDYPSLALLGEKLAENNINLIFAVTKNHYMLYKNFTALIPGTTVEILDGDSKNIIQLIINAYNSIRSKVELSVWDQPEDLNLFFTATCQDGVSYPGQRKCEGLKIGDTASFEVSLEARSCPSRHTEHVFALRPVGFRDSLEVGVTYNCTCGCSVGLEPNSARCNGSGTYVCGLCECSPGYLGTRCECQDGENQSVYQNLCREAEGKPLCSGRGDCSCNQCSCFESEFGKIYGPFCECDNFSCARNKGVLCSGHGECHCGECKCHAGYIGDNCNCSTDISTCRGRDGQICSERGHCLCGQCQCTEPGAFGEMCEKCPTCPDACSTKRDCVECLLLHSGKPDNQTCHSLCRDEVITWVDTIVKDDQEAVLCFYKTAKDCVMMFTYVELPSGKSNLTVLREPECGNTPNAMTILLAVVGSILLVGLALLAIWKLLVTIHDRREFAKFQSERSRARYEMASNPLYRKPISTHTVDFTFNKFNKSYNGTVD

Row | Compound | pKd [1, 3] | Performance evaluation: Stability (residual rate of cyclic peptide after alkali treatment) [2] | pKd [1, 4] | Stability (molecule stability, residual rate of the cyclic peptide rank) [2]
1 | CC[C@H](C)[C@@H]1NC(=O)[C@@H](NC(=O)CNC(=O)[C@H](CCCCN)NC(=O)[C@H](CCCCN)NC(=O)[C@@H](N)CCCCN)CCSCC(=O)NCC[C@@H](C(=O)N[C@@H](C)C(=O)O)NC(=O)[C@H](CCCNC(=N)N)NC(=O)[C@H](Cc2ccccc2)NC(=O)[C@H](CC(N)=O)NC(=O)[C@H](CC(=O)O)NC(=O)CNC(=O)[C@H](CCCNC(=N)N)NC(=O)[C@@H]2CCCN2C1=O [Cyclic peptide 1, KKKG-(Hcy)-IPRGDNFR(Dab(acetyl))A] (H-KKKG[hCys]IPRGDNFR[Dab]A-OH; linker 5-14 via X2) | > 7.30 | A (The residual rate of the cyclic peptide is 70% or more.) | – | –
2 | CC(C)[C@@H]1NC(=O)[C@@H](NC(=O)CNC(=O)[C@H](CCCCN)NC(=O)[C@H](CCCCN)NC(=O)[C@@H](N)CCCCN)CCSCC(=O)NCC[C@@H](C(=O)NCC(=O)O)NC(=O)[C@H](C)NC(=O)[C@H](Cc2ccccc2)NC(=O)[C@H](CO)NC(=O)[C@H](CC(=O)O)NC(=O)CNC(=O)[C@H](CCCNC(=N)N)NC(=O)[C@@H]2CCCN2C1=O [Cyclic peptide 99, KKKG-(Hcy)-VPRGDSFA(Dab(acetyl))G] (H-KKKG[hCys]VPRGDSFA[Dab]G-OH; linker 5-14 via X2) | > 7.30 | A (The residual rate of the cyclic peptide is 70% or more.) | – | –
3 | CC[C@H](C)[C@@H]1NC(=O)[C@@H](NC(=O)CNC(=O)[C@H](CCCCN)NC(=O)[C@H](CCCCN)NC(=O)[C@@H](N)CCCCN)C(C)(C)SCC(=O)NCCC[C@@H](C(=O)N[C@@H](C)C(=O)O)NC(=O)[C@H](CCCNC(=N)N)NC(=O)[C@H](Cc2ccccc2)NC(=O)[C@H]([C@@H](C)O)NC(=O)[C@H](CC(=O)O)NC(=O)CNC(=O)[C@H](CCCNC(=N)N)NC(=O)[C@@H]2CCCN2C1=O [Cyclic peptide 130, KKKG-(Pen)-IPRGDTFR(Orn(acetyl))A] (H-KKKG[Pen]IPRGDTFR[Orn]A-OH; linker 5-14 via X2) | – | – | > 7.30 | A (The residual rate of the cyclic peptide is 70% or more.)
4 | C[C@H](NC(=O)[C@H](CCCCN)NC(=O)[C@H](CCCCN)NC(=O)[C@@H](N)CCCCN)C(=O)N[C@H]1CCSCC(=O)NCC[C@@H](C(=O)O)NC(=O)[C@H](C)NC(=O)[C@H](Cc2ccccc2)NC(=O)[C@H]([C@@H](C)O)NC(=O)[C@H](CC(=O)O)NC(=O)CNC(=O)[C@H](CCCNC(=N)N)NC(=O)[C@@H]2CCCN2C(=O)[C@H]([C@@H](C)O)NC1=O [Cyclic peptide 158, KKKA-(Hcy)-TPRGDTFA(Dab(acetyl))] (H-KKKA[hCys]TPRGDTFA[Dab]-OH; linker 5-14 via X2) | – | – | > 7.30 | A (The residual rate of the cyclic peptide is 70% or more.)
5 | CC[C@H](C)[C@@H]1NC(=O)[C@@H](NC(=O)[C@H](C)NC(=O)[C@H](CCCCN)NC(=O)[C@H](CCCCN)NC(=O)[C@@H](N)CCCCN)CCSCC(=O)NCC[C@@H](C(=O)NCC(=O)O)NC(=O)[C@H](C)NC(=O)[C@H](Cc2ccccc2)NC(=O)[C@H]([C@@H](C)O)NC(=O)[C@H](CC(=O)O)NC(=O)CNC(=O)[C@H](CCCNC(=N)N)NC(=O)[C@@H]2CCCN2C1=O [Cyclic peptide 85, KKKA-(Hcy)-IPRGDTFA(Dab(acetyl))G] (H-KKKA[hCys]IPRGDTFA[Dab]G-OH; linker 5-14 via X2) | > 7.30 | A (The residual rate of the cyclic peptide is 70% or more.) | – | –
6 | CC[C@H](C)[C@@H]1NC(=O)[C@@H](NC(=O)[C@H](C)NC(=O)[C@H](CCCCN)NC(=O)[C@H](CCCCN)NC(=O)[C@@H](N)CCCCN)CCSCC(=O)NCC[C@@H](C(=O)N[C@@H](C)C(=O)O)NC(=O)[C@H]([C@@H](C)O)NC(=O)[C@H](Cc2ccccc2)NC(=O)[C@H]([C@@H](C)O)NC(=O)[C@H](CC(=O)O)NC(=O)CNC(=O)[C@H](CCCNC(=N)N)NC(=O)[C@@H]2CCCN2C1=O [Cyclic peptide 82, KKKA-(Hcy)-IPRGDTFT(Dab(acetyl))A] (H-KKKA[hCys]IPRGDTFT[Dab]A-OH; linker 5-14 via X2) | 7.00 to 7.30 | A (The residual rate of the cyclic peptide is 70% or more.) | – | –
7 | CC(C)[C@@H]1NC(=O)[C@@H](NC(=O)[C@H](CCCCN)NC(=O)[C@H](CCCCN)NC(=O)[C@@H](N)CCCCN)CCSCC(=O)NCC[C@@H](C(=O)O)NC(=O)[C@H](C)NC(=O)[C@H](Cc2ccccc2)NC(=O)[C@H](CO)NC(=O)[C@H](CC(=O)O)NC(=O)CNC(=O)[C@H](CCCNC(=N)N)NC(=O)[C@@H]2CCCN2C1=O [Cyclic peptide 102, KKK-(Hcy)-VPRGDSFA(Dab(acetyl))] (H-KKK[hCys]VPRGDSFA[Dab]-OH; linker 4-13 via X2) | – | – | > 7.30 | A (The residual rate of the cyclic peptide is 70% or more.)
8 | CC(C)[C@@H]1NC(=O)[C@@H](NC(=O)[C@H](C)NC(=O)[C@H](CCCCN)NC(=O)[C@H](CCCCN)NC(=O)[C@@H](N)CCCCN)CCSCC(=O)NCC[C@@H](C(=O)NCC(=O)O)NC(=O)[C@H](C)NC(=O)[C@H](Cc2ccccc2)NC(=O)[C@H]([C@@H](C)O)NC(=O)[C@H](CC(=O)O)NC(=O)CNC(=O)[C@H](CCCNC(=N)N)NC(=O)[C@@H]2CCCN2C1=O [Cyclic peptide 107, KKKA-(Hcy)-VPRGDTFA(Dab(acetyl))G] (H-KKKA[hCys]VPRGDTFA[Dab]G-OH; linker 5-14 via X2) | – | – | > 7.30 | A (The residual rate of the cyclic peptide is 70% or more.)
9 | CC[C@H](C)[C@@H]1NC(=O)[C@@H](NC(=O)CNC(=O)[C@H](CCCCN)NC(=O)[C@H](CCCCN)NC(=O)[C@@H](N)CCCCN)CCSCC(=O)NCC[C@@H](C(=O)NCC(=O)O)NC(=O)[C@H](C)NC(=O)[C@H](Cc2ccccc2)NC(=O)[C@H](CO)NC(=O)[C@H](CC(=O)O)NC(=O)CNC(=O)[C@H](CCCNC(=N)N)NC(=O)[C@@H]2CCCN2C1=O [Cyclic peptide 95, KKKG-(Hcy)-IPRGDSFA(Dab(acetyl))G] (H-KKKG[hCys]IPRGDSFA[Dab]G-OH; linker 5-14 via X2) | > 7.30 | A (The residual rate of the cyclic peptide is 70% or more.) | – | –
10 | CC(C)[C@@H]1NC(=O)[C@@H](NC(=O)[C@H](C)NC(=O)[C@H](CCCCN)NC(=O)[C@H](CCCCN)NC(=O)[C@@H](N)CCCCN)CCSCC(=O)NCCCC[C@@H](C(=O)N[C@@H](C)C(=O)O)NC(=O)[C@H](C)NC(=O)[C@H](Cc2ccccc2)NC(=O)[C@H]([C@@H](C)O)NC(=O)[C@H](CC(=O)O)NC(=O)CNC(=O)[C@H](CCCNC(=N)N)NC(=O)[C@@H]2CCCN2C1=O [Cyclic peptide 121, KKKA-(Hcy)-VPRGDTFA(Lys(acetyl))A] (H-KKKA[hCys]VPRGDTFAKA-OH; linker 5-14 via X2) | – | – | > 7.30 | A (The residual rate of the cyclic peptide is 70% or more.)
11 | CC[C@H](C)[C@@H]1NC(=O)[C@@H](NC(=O)[C@H](C)NC(=O)[C@H](CCCCN)NC(=O)[C@H](CCCCN)NC(=O)[C@@H](N)CCCCN)CCSCC(=O)NCC[C@@H](C(=O)N[C@@H](C)C(=O)O)NC(=O)[C@H](CCCNC(=N)N)NC(=O)[C@@H]2CCCN2C(=O)[C@H]([C@@H](C)O)NC(=O)[C@H](CC(=O)O)NC(=O)CNC(=O)[C@H](CCCNC(=N)N)NC(=O)[C@@H]2CCCN2C1=O [Cyclic peptide 80, KKKA-(Hcy)-IPRGDTPR(Dab(acetyl))A] (H-KKKA[hCys]IPRGDTPR[Dab]A-OH; linker 5-14 via X2) | 7.00 to 7.30 | A (The residual rate of the cyclic peptide is 70% or more.) | – | –
12 | CC[C@H](C)[C@@H]1NC(=O)[C@@H](NC(=O)[C@H](CCCCN)NC(=O)[C@H](CCCCN)NC(=O)[C@@H](N)CCCCN)CCSCC(=O)NCC[C@@H](C(=O)N[C@@H](C)C(=O)O)NC(=O)[C@H](Cc2ccccc2)NC(=O)[C@H]([C@@H](C)O)NC(=O)[C@H](CC(=O)O)NC(=O)CNC(=O)[C@H](CCCNC(=N)N)NC(=O)[C@@H]2CCCN2C1=O [Cyclic peptide 60, KKK-(Hcy)-IPRGDTF(Dab(acetyl))A] (H-KKK[hCys]IPRGDTF[Dab]A-OH; linker 4-12 via X2) | > 7.30 | A (The residual rate of the cyclic peptide is 70% or more.) | – | –
13 | CC[C@H](C)[C@@H]1NC(=O)[C@@H](NC(=O)CNC(=O)[C@H](CCCCN)NC(=O)[C@H](CCCCN)NC(=O)[C@@H](N)CCCCN)CCSCC(=O)NCC[C@@H](C(=O)O)NC(=O)[C@H](CCCNC(=N)N)NC(=O)[C@H](Cc2ccccc2)NC(=O)[C@H](CC(N)=O)NC(=O)[C@H](CC(=O)O)NC(=O)CNC(=O)[C@H](CCCNC(=N)N)NC(=O)[C@@H]2CCCN2C1=O [Cyclic peptide 7, KKKG-(Hcy)-IPRGDNFR(Dab(acetyl))] (H-KKKG[hCys]IPRGDNFR[Dab]-OH; linker 5-14 via X2) | > 7.30 | A (The residual rate of the cyclic peptide is 70% or more.) | – | –
